Tests used:
Test in all cases: relative viability (nuclei count vs DMSO), 5 days (fraction); higher = more cells survive
CX-5461 + Alpelisib = compound: Cc1cnc(CNC(=O)c2c(=O)c3ccc(N4CCCN(C)CC4)nc3n3c2sc2ccccc23)cn1 [CX-5461] + Cc1nc(NC(=O)N2CCC[C@H]2C(N)=O)sc1-c1ccnc(C(C)(C)C(F)(F)F)c1 [Alpelisib] (partner 2 µM)
How it was run: (§1)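 Lung cancer cell lines, seeded in 1536-well plates, were treated the following day by pin tool with a single drug or with five library-drug doses (not always all listed) in √10 steps on top of a fixed anchor-drug dose. Cells were fixed and nuclei stained in one step after 5 days, and nuclei were counted. Relative viability is the nuclei count for treated wells divided by that for vehicle wells, reported as medians of duplicate plates.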

IMD-0354 + Palbociclib = compound: O=C(Nc1cc(C(F)(F)F)cc(C(F)(F)F)c1)c1cc(Cl)ccc1O [IMD-0354] + CC(=O)c1c(C)c2cnc(Nc3ccc(N4CCNCC4)cn3)nc2n(C2CCCC2)c1=O [Palbociclib] (partner 0.5 µM)
How it was run: as §1

IMD-0354 + Bortezomib = compound: O=C(Nc1cc(C(F)(F)F)cc(C(F)(F)F)c1)c1cc(Cl)ccc1O [IMD-0354] + CC(C)C[C@H](NC(=O)[C@H](Cc1ccccc1)NC(=O)c1cnccn1)B(O)O [Bortezomib] (partner 0.002 µM)
How it was run: as §1

IMD-0354 + AZD7762 = compound: O=C(Nc1cc(C(F)(F)F)cc(C(F)(F)F)c1)c1cc(Cl)ccc1O [IMD-0354] + NC(=O)Nc1cc(-c2cccc(F)c2)sc1C(=O)N[C@H]1CCCNC1 [AZD7762] (partner 0.2 µM)
How it was run: as §1

| Cell Line | relative viability (CX-5461 + Alpelisib; first compound 0.01 µM) | relative viability (CX-5461 + Alpelisib; first compound 0.03162 µM) | relative viability (CX-5461 + Alpelisib; first compound 0.1 µM) | relative viability (CX-5461 + Alpelisib; first compound 0.3162 µM) | relative viability (CX-5461 + Alpelisib; first compound 1 µM) | relative viability (IMD-0354 + Palbociclib; first compound 0.04 µM) | relative viability (IMD-0354 + Palbociclib; first compound 0.1265 µM) | relative viability (IMD-0354 + Palbociclib; first compound 0.4 µM) | relative viability (IMD-0354 + Palbociclib; first compound 1.265 µM) | relative viability (IMD-0354 + Palbociclib; first compound 4 µM) | relative viability (IMD-0354 + Bortezomib; first compound 0.04 µM) | relative viability (IMD-0354 + Bortezomib; first compound 0.1265 µM) | relative viability (IMD-0354 + Bortezomib; first compound 0.4 µM) | relative viability (IMD-0354 + Bortezomib; first compound 1.265 µM) | relative viability (IMD-0354 + Bortezomib; first compound 4 µM) | relative viability (IMD-0354 + AZD7762; first compound 0.04 µM) | relative viability (IMD-0354 + AZD7762; first compound 0.1265 µM) | relative viability (IMD-0354 + AZD7762; first compound 0.4 µM) | relative viability (IMD-0354 + AZD7762; first compound 1.265 µM) | relative viability (IMD-0354 + AZD7762; first compound 4 µM) |
| --- | --- | --- | --- | --- | --- | --- | --- | --- | --- | --- | --- | --- | --- | --- | --- | --- | --- | --- | --- | --- |
| EMC-BAC-2 | 0.752 | 0.833 | 0.782 | 0.698 | 0.717 | 0.534 | 0.522 | 0.423 | 0.35 | 0.34 | 1.17 | 1.03 | 0.553 | 0.634 | 0.217 | 1.19 | 1.13 | 0.822 | 0.443 | 0.433 |
| NCI-H358 | 0.997 | 0.883 | 0.413 | 0.593 | 0.27 | 0.144 | 0.136 | 0.119 | 0.0987 | 0.101 |  |  |  |  |  | 0.591 | 0.433 | 0.384 | 0.245 | 0.255 |
| NCI-H1299 | 1.04 | 1.04 | 1.08 | 1.1 | 0.992 |  |  |  |  |  | 0.938 | 0.965 | 0.841 | 0.438 | 0.193 |  |  |  |  |  |
| EBC-1 | 0.899 | 0.943 | 0.75 | 0.775 | 0.425 |  |  |  |  |  | 0.54 | 0.59 | 0.471 | 0.184 | 0.195 |  |  |  |  |  |
| NCI-H2342 |  |  |  |  |  | 0.491 | 0.511 | 0.499 | 0.538 | 0.438 |  |  |  |  |  | 0.539 | 0.509 | 0.469 | 0.31 | 0.385 |
| ChaGo-K-1 |  |  |  |  |  | 0.844 | 0.917 | 0.55 | 0.473 | 0.236 | 1.39 | 1.21 | 0.67 | 0.326 | 0.39 | 0.912 | 0.937 | 0.596 | 0.218 | 0.254 |
| COR-L23 | 0.81 | 0.921 | 0.649 | 0.725 | 0.342 | 0.303 | 0.278 | 0.185 | 0.122 | 0.12 | 0.932 | 0.823 | 0.372 | 0.114 | 0.249 |  |  |  |  |  |
| COR-L 105 | 1.14 | 0.942 | 1.26 | 0.851 | 0.414 | 0.404 | 0.395 | 0.394 | 0.33 | 0.284 | 0.757 | 0.663 | 0.76 | 0.239 | 0.274 |  |  |  |  |  |
| NCI-H1395 | 1.31 | 0.935 | 0.897 | 0.704 | 0.561 | 0.679 | 0.682 | 0.656 | 0.397 | 0.418 |  |  |  |  |  | 0.394 | 0.427 | 0.383 | 0.319 | 0.384 |
| NCI-H596 | 0.509 | 0.494 | 0.52 | 0.524 | 0.441 |  |  |  |  |  | 0.931 | 1.15 | 0.846 | 1.08 | 0.629 | 0.906 | 0.959 | 0.877 | 0.519 | 0.551 |
| NCI-H2023 | 0.646 | 0.606 |  | 0.57 | 0.0938 | 0.495 | 0.346 | 0.273 | 0.316 | 0.241 | 1.02 | 0.97 | 0.843 | 0.114 | 0.081 |  |  |  |  |  |

From the supplement of paper PMC10307832
